Laboratory results taken from patent publication US12565485B2, “Solid forms of 1-((S)-4-((R)-7-(6-amino-4-methyl-3-(trifluoromethyl)pyridin-2-yl)-6-chloro-8-fluoro-2-(((s)-1-methylpyrrolidin-2-yl)methoxy)quinazolin-4-yl)-3-methylpiperazin-1-yl)prop-2-en-1-one” (Genentech, Inc., priority 2022, dated 2026).
Blank lines part the entries; values can stand above or below the molecule they belong to.

Key:
Format in all cases: physicochemical
[1] = Static storage at 25° C./97% RH and 40° C./75% RH; conditions: after 7 days
Description: Amorphous material of Compound A (mono adipate salt) was successfully prepared through freeze drying. Characterisation of the initial batch of samples were all shown to be amorphous by XRPD and the NMR's contained ca. 1.1 eq. adipic acid with varying quantities of residual solvent, except for acetonitrile/water (1:1) which contained no residual solvent. […] Static storage at 25° C./97% RH and 40° C./75% RH after 7 days were all shown to have deliquesced.

[2] = Heating under N2 protection (VT-XRPD), form change
Description: Compound B Form A was obtained from an acetone system and the sample was air dried at RT. […] (peak temperature) before the possible overlapped peak with peak temperature at 156.3° C. (FIG. 12). Based on the integrals, the stoichiometric ratio of fumaric acid:freebase was determined to be 1.03. A peak of acetone was observed and approximately 0.49 molar acetone (4.4 wt %) was detected. The HPLC purity of Compound B Form A was determined to be 93.56 area %. […] Around 0.39 molar acetone (3.5 wt %) was still detected. One endotherm at 58.7° C. and an overlapped peak with peak temperature at 157.1° C. were still observed on the sample obtained after heating. The first endotherm might be caused by re-adsorption of moisture. Since ˜3.5 wt % acetone was still detected from NMR, Compound B Form A is expected to be an acetone/H2O co-solvate. […]

[3] = Approximate solubility at RT (stepwise solvent addition until visually dissolved)
Description: The solubility of starting material was estimated at RT in 20 solvents. For each experiment, approximately 2 mg of sample was added into a 3-mL glass vial. Solvents in Table 32 were then added stepwise (50, 50, 200, 700 μL) into the vials until the solids were dissolved visually or a total volume of 1 mL was reached.

[4] = VH-XRPD analysis / transitions of forms at varying relative humidity; conditions: dehydrated
Source text: FIG. 19. The sample then reverts to the original form upon reaching 30% RH. […] Transitions of Forms of Compound A at varying RH.

[5] = Form change before and after drying (XRPD); conditions: for Form change before and after drying: air dried at RT
Description: The wet sample was vacuum dried at RT for 3 hrs. […] A solid was obtained with a yield of 62.2%. […] (peak temperature). Based on the integrals in NMR spectrum, the stoichiometric ratio of adipic acid:freebase was determined to be 1.06. A peak of EtOAc was observed. Around 0.07 molar EtOAc (0.8 wt %) was detected, which was consistent with TGA weight loss.
(peak), and one small endotherm at 158.8° C. […] Based on the integrals, the stoichiometric ratio of adipic acid:freebase was determined to be 1.65.
(peak temperature). Based on the integrals, the stoichiometric ratio of adipic acid:freebase was determined to be 1.06. Peak of THF was observed. Around 0.17 molar THF (1.9 wt %) was detected, which was consistent with TGA weight loss.
Compound B Form A was obtained from an acetone system and the sample was air dried at RT. […] (peak temperature) before the possible overlapped peak with peak temperature at 156.3° C. (FIG. 12). Based on the integrals, the stoichiometric ratio of fumaric acid:freebase was determined to be 1.03. A peak of acetone was observed and approximately 0.49 molar acetone (4.4 wt %) was detected. The HPLC purity of Compound B Form A was determined to be 93.56 area %. […] Around 0.39 molar acetone (3.5 wt %) was still detected. One endotherm at 58.7° C. and an overlapped peak with peak temperature at 157.1° C. were still observed on the sample obtained after heating. The first endotherm might be caused by re-adsorption of moisture. Since ˜3.5 wt % acetone was still detected from NMR, Compound B Form A is expected to be an acetone/H2O co-solvate.
Compound C Form A was obtained from EtOAc system and the sample was air dried at RT. […] HPLC purity of Compound C Form A was determined to be 95.18 area %.

[6] = Slurry competition between Compound A Form A and B
Description: The suspensions were stirred at a speed of 750 rpm and tested by XRPD in transmission mode.

[7] = heating to 100° C. under N2 protection, cooled down and exposed to ambient conditions

- Static storage observation ([1]; 25° C./97% RH): deliquesced
- Static storage observation ([1]; 40° C./75% RH): deliquesced
SMILES: C=CC(=O)N1CCN(c2nc(OC[C@@H]3CCCN3C)nc3c(F)c(-c4nc(N)cc(C)c4C(F)(F)F)c(Cl)cc23)[C@@H](C)C1.O=C(O)CCCCC(=O)O [Amorphous material of Compound A]

- Form change after heating [2, 7]: no form change was observed
SMILES: C=CC(=O)N1CCN(c2nc(OC[C@@H]3CCCN3C)nc3c(F)c(-c4nc(N)cc(C)c4C(F)(F)F)c(Cl)cc23)[C@@H](C)C1.CC(=O)O (atropisomer, axis not shown) [Compound F Form A]

- Solubility ([3]; 1,4-Dioxane): S > 38.0 mg/mL
- Solubility ([3]; 2-MeTHF): S > 40.0 mg/mL
- Solubility ([3]; Acetone): S > 40.0 mg/mL
- Solubility ([3]; Anisole): S > 38.0 mg/mL
- Solubility ([3]; CPME): S > 40.0 mg/mL
- Solubility ([3]; DCM): S > 38.0 mg/mL
- Solubility ([3]; DMSO): S > 38.0 mg/mL
- Solubility ([3]; EtOAc): S > 40.0 mg/mL
- Solubility ([3]; H2O): S < 2.1 mg/mL
- Solubility ([3]; IPAc): S > 40.0 mg/mL
- Solubility ([3]; MEK): S > 46.0 mg/mL
- Solubility ([3]; MIBK): S > 42.0 mg/mL
- Solubility ([3]; MeOH): S > 42.0 mg/mL
- Solubility ([3]; THF): S > 44.0 mg/mL
- Solubility ([3]; Toluene): S > 40.0 mg/mL
- Solubility ([3]; n-Heptane): S < 2.0 mg/mL
SMILES: C=CC(=O)N1CCN(c2nc(OC[C@@H]3CCCN3C)nc3c(F)c(-c4nc(N)cc(C)c4C(F)(F)F)c(Cl)cc23)[C@@H](C)C1 [starting material]

- Form after dehydration [4]: formed Compound A Form C
SMILES: C=CC(=O)N1CCN(c2nc(OC[C@@H]3CCCN3C)nc3c(F)c(-c4nc(N)cc(C)c4C(F)(F)F)c(Cl)cc23)[C@@H](C)C1 [Compound A Form D]

- Form change after heating ([2]; heating to 90° C. under N2 protection): no form change was observed
- Form change after drying ([5]; air drying at RT overnight): No form change was observed
SMILES: C=CC(=O)N1CCN(c2nc(OC[C@@H]3CCCN3C)nc3c(F)c(-c4nc(N)cc(C)c4C(F)(F)F)c(Cl)cc23)[C@@H](C)C1 [Compound A Form B]

- Form change after heating ([2]; heating to 100° C. under N2 protection, cooled down and exposed to ambient conditions, listed as Form A of Compound C): no form change was observed
- Form change before and after drying [5]: No form change was observed
SMILES: C=CC(=O)N1CCN(c2nc(OC[C@@H]3CCCN3C)nc3c(F)c(-c4nc(N)cc(C)c4C(F)(F)F)c(Cl)cc23)[C@@H](C)C1 [Compound C Form A]

- Form change after heating [2, 7]: no form change was observed
- Form change before and after drying [5]: No form change was observed
SMILES: C=CC(=O)N1CCN(c2nc(OC[C@@H]3CCCN3C)nc3c(F)c(-c4nc(N)cc(C)c4C(F)(F)F)c(Cl)cc23)[C@@H](C)C1.O=C(O)/C=C/C(=O)O (atropisomer, axis not shown) [Compound B Form A]

- Slurry competition result (XRPD form) ([6]; IPA, 5° C.): Compound A Form A
- Slurry competition result (XRPD form) ([6]; IPA, 5° C., listed as Compound A Form A+B): turned to Compound A Form A
- Slurry competition result (XRPD form) ([6]; IPA, −20° C.): Compound A Form A
- Slurry competition result (XRPD form) ([6]; IPA, −20° C., listed as Compound A Form A+B): turned to Compound A Form A
- Slurry competition result (XRPD form) ([6]; Toluene, 5 to RT (RT for 18 days)): Compound A Form A
- Slurry competition result (XRPD form) ([6]; Toluene, 5 to RT (RT for 18 days), listed as Compound A Form A+B): Compound A Form A was observed
SMILES: C=CC(=O)N1CCN(c2nc(OC[C@@H]3CCCN3C)nc3c(F)c(-c4nc(N)cc(C)c4C(F)(F)F)c(Cl)cc23)[C@@H](C)C1.O=C(O)CCCCC(=O)O [Compound A Form A + B]
- Slurry competition result (XRPD form) ([6]; Toluene, 5° C., after 5 days): a mixture of Compound A Form A+B was observed
